In US11524966B1 (Valo Early Discovery, Inc., priority 2017, dated 2022):

Tests used:
Assay type in all cases: biochemical
[1] = target: T1, USP28 (USP28-5(1-1077)-TEV-6*His; LifeSensors) (Homo sapiens, UniProt Q96RU2); experiment: Ubiquitin-Rhodamine 110 Assay for USP28 Activity, Example A-1(b); conditions: Ub-Rh110 assay, Example A-1(b)
T1 construct: construct USP28 (USP28-5(1-1077)-TEV-6*His; LifeSensors); TEV cleavage site (C); 6xHis (C); purchased LifeSensors
T1 sequence (Q96RU2 1-1077): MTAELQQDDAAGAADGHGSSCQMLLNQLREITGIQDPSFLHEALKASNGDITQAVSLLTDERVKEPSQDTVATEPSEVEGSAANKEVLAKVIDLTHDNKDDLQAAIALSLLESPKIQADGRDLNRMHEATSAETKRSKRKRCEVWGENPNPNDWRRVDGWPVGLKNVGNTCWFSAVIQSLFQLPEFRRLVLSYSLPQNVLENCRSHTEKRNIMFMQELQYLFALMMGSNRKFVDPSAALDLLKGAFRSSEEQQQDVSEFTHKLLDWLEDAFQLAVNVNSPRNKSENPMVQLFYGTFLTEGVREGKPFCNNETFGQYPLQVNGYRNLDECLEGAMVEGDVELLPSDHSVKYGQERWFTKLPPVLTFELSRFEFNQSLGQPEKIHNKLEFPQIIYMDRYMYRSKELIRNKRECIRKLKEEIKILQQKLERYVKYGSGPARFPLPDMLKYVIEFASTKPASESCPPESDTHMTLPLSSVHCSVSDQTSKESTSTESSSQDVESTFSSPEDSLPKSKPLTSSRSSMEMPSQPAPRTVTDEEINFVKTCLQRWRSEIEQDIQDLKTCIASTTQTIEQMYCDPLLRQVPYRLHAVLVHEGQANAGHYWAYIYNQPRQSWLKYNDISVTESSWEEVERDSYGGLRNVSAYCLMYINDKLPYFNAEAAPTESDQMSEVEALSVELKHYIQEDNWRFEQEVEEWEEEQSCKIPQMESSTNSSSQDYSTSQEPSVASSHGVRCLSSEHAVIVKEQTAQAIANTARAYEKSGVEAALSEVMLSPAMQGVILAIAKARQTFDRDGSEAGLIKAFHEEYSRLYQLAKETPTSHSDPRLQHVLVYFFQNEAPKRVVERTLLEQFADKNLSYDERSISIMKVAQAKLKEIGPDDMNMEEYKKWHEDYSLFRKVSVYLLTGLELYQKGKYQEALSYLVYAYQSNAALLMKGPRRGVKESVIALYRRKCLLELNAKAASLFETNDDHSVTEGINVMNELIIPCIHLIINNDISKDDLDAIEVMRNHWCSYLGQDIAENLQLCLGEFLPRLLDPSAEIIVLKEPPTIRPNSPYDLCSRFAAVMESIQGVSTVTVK
Protocol: Example A-1(b): Biochemical Assay: Ubiquitin-Rhodamine 110 Assay for USP28 Activity
Each assay was performed in a final volume of 20 μL in assay buffer containing 20 mM Tris-HCl (pH 8.0, (1M Tris-HCl, pH 8.0 solution; Corning 46-031-CM)), 2 mM CaCl2) (1M Calcium Chloride solution; Sigma #21114) 2 mM BME (2-Mercaptoethanol; Sigma 63689-25ML-F), 0.01% Prionex ([…] filtered, Sigma #G-0411), and 0.01% Triton X-100. Stock compound solutions were stored at −20° C. as 10 mM in DMSO. Up to 1 month prior to the assay, 2 mM test compounds were pre-dispensed into assay plates (Black, low volume; Corning #3820) and frozen at −20° C. Prestamped assay plates were allowed to come to room temperature on the day of the assay. For the screen, 100 nL of 2 mM was pre-dispensed for a final screening concentration of 10 μM (DMSO(fc)=0.5%). […] Plates were incubated stacked for 90 minutes at room temperature before fluorescence was read on the Envision (Excitation at 485 nm and Emission at 535 nm; Perkin Elmer) or on the PheraSTAR (Excitation at 485 nm and Emission at 535 nm; BMG Labtech).
For follow-up studies, each assay was performed in a final volume of 15 μL in assay buffer containing 20 mM Tris-HCl (pH 8.0, (1M Tris-HCl, pH 8.0 solution; Corning 46-031-CM)), 3 mM BME (2-Mercaptoethanol; Sigma 63689-25ML-F), 0.03% BGG (0.22 μM filtered, Sigma, G7516-25G), and 0.01% Triton X-100 (Sigma, T9284-10L). Nanoliter quantities of either an 8-point or 10-point, 3-fold serial dilution in DMSO was pre-dispensed into assay plates (Perkin Elmer, ProxiPlate-384 F Plus, #) for a final test concentration of either 25 μM to 11 nM or 25 μM to 1.3 nM, respectively. Enzyme USP28, construct USP28 (USP28-5(1-1077)-TEV-6*His; LifeSensors) concentration and incubation times were optimized for the maximal signal-to-background while maintaining initial velocity conditions at a fixed substrate concentration. The final concentration of the enzyme in the assay was 75 pM. Final substrate (Ub-Rh110; Ubiquitin-Rhodamine 110, R&D Systems #U-555) concentration was 25 nM with [Ub-Rh110]<<Km. 5 μL of 2× enzyme was added to assay plates (pre-stamped with compound) preincubated with USP28 for 30 minutes and then 5 μL of 2×Ub-Rh110 was added to assay plates. Plates were incubated stacked for 20 minutes at room temperature before 5 μL of stop solution was added (final concentration of 10 mM citric acid (Sigma, 251275-500G)). Fluorescence was read on the Envision (Excitation at 485 nm and Emission at 535 nm; Perkin Elmer) or on the PheraSTAR (Excitation at 485 nm and Emission at 535 nm; BMG Labtech).
For assay formats Example A-1(a), A-1(b), and A-2, data were reported as percent inhibition compared with control wells based on the following equation: % inh=1−((FLU−AveLow)/(AveHigh−AveLow)) where FLU=measured Fluorescence, AveLow=average Fluorescence of no enzyme control (n=16), and AveHigh=average Fluorescence of DMSO control (n=16). IC50 values were determined by curve fitting of the standard 4 parameter logistic fitting algorithm included in the Activity Base software package: IDBS XE Designer Model 205. Data is fitted using the Levenburg Marquardt algorithm.

[2] = target: T2, USP25 (USP25-His6, Boston Biochem E-546) (Homo sapiens, UniProt Q9UHP3); experiment: Ubiquitin-Rhodamine 110 Assay for USP25 Activity, Example A-2; conditions: Ubiquitin-Rhodamine 110 assay, Example A-2; read-out: USP25 A-2 IC50 range
T2 construct: His6; purchased Boston Biochem E-546
T2 sequence (Q9UHP3 1-1055): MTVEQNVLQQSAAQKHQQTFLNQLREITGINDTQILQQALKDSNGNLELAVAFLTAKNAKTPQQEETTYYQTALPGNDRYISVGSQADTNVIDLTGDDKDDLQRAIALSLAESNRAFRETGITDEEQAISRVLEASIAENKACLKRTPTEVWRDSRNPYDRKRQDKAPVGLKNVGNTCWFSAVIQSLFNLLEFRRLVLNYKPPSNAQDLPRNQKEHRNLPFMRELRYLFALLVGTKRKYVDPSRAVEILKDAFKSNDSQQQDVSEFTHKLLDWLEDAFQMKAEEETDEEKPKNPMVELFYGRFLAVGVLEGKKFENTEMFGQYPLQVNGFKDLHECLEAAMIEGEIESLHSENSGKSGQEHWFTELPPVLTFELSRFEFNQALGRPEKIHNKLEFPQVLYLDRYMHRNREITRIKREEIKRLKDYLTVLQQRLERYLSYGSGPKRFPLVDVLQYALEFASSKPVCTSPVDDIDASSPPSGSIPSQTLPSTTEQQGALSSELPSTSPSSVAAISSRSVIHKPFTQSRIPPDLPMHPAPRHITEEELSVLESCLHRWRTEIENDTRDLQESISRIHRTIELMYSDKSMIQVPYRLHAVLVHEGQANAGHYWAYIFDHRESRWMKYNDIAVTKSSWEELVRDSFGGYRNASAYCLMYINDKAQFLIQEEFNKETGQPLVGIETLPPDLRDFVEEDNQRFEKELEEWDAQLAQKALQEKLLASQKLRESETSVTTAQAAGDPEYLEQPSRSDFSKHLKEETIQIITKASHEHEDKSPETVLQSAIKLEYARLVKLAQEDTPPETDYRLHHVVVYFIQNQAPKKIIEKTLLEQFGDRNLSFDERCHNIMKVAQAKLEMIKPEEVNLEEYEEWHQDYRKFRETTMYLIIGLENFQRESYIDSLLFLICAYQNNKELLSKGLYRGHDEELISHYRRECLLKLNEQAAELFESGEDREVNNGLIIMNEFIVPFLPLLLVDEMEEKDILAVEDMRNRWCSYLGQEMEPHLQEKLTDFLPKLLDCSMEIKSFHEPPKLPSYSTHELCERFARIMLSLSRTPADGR
Protocol: The assay was performed in a final volume of 9 μL in assay buffer containing 20 mM Tris-HCl (pH 8.0, (1M Tris-HCl, pH 8.0 solution; Corning 46-031-CM)), 3 mM BME (2-Mercaptoethanol; Sigma 63689-25ML-F), 0.03% BGG (0.22 μM filtered, Sigma, G7516-25G), and 0.01% Triton X-100 (Sigma, T9284-10L). Nanoliter quantities of 10-point, 3-fold serial dilution in DMSO was pre-dispensed into 1536 assay plates (Corning, #3724BC) for a final test concentration of 25 μM to 1.3 nM, top to lowest dose, respectively. Enzyme USP25, construct USP25-His6, (Boston Biochem E-546). Concentration and incubation times were optimized for the maximal signal-to-background while maintaining initial velocity conditions at a fixed substrate concentration. The final concentration of the enzyme in the assay was 75 pM. Final substrate (Ub-Rh110; Ubiquitin-Rhodamine 110, R&D Systems #U-555) concentration was 25 nM with [Ub-Rh110]<<Km. 3 μL of 2× enzyme was added to assay plates (pre-stamped with compound) preincubated with […] for 30 minutes and then 3 μL of 2×Ub-Rh110 was added to assay plates. Plates were incubated for 45 minutes at room temperature before addition of 3 μL of stop solution (final concentration of 10 mM citric acid (Sigma, 251275-500G)). Fluorescence was read on the Envision (Excitation at 485 nm and Emission at 535 nm; Perkin Elmer) or on the PheraSTAR (Excitation at 485 nm and Emission at 535 nm; BMG Labtech).
IC50 values were determined by curve fitting of the standard 4 parameter logistic fitting algorithm included in the Activity Base software package: IDBS XE Designer Model 205. Data is fitted using the Levenburg Marquardt algorithm.

[3] = target: T3, USP28 (His-tagged USP28-FL-mammalian) (Homo sapiens, UniProt Q96RU2); experiment: Ubiquitin-Rhodamine 110 Assay for USP28 Activity, Example A-1(a); conditions: Ubiquitin-Rhodamine 110 assay, Example A-1(a); read-out: USP28 A-1(a) IC50 range
T3 construct: Expression of USP28 (1-1077)-TEV-6*His (pTT5 vector); made in house; host or cells: Expi293f cells (pTT5 vector)
T3 sequence (Q96RU2 1-1077): T1 sequence (Q96RU2 1-1077)
How it was run: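 IC50 from 4-parameter logistic fit of percent inhibition versus no-enzyme and DMSO controls; compounds 25 μM to 1.3 nM, 3-fold. Ub-Rh110 cleavage (25 nM, below Km) by […] mammalian-expressed USP28-FL-His ran 45 min at room temperature, stopped with 10 mM citric acid, read ex 485/em 535.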

Structure (SMILES) | IC50 [3] | further results
Cc1ccc2c(N)c(C(=O)N[C@@H]3COc4cc(N5CCN[C@@H](C)[C@H]5C)ccc4C3)sc2n1 (single isomer, unassigned) [Example 1-8] |  | USP28 A-1(b) IC50 range [1]: ++++ (0.001-0.05 μM)
Cc1ccc2c(N)c(C(=O)NC3COc4cc(N5CCNCC5)ccc4C3C)sc2n1 (single isomer, unassigned) [Example 11-17] |  | IC50 [2]: > 2000 nM
Cc1ccc2c(N)c(C(=O)N[C@H]3COc4cc(N5C[C@@H](N)[C@]6(CCOC6)C5)ccc4C3)sc2n1 [Example 432, 3-amino-N-[(3R)-7-[(5S,9S)-9-amino-2-oxa-7-azaspiro[4.4]nonan-7-yl]-3,4-dihydro-2H-1-benzopyran-3-yl]-6-methylthieno[2,3-b]pyridine-2-carboxamide] | 1 to 50 nM | 
Cc1ccc2c(N)c(C(=O)N[C@H]3COc4cc(N5C[C@@H](N)[C@@]6(CCOC6)C5)ccc4C3)sc2n1 [Example 433, 3-amino-N-[(3R)-7-[(5R,9S)-9-amino-2-oxa-7-azaspiro[4.4]nonan-7-yl]-3,4-dihydro-2H-1-benzopyran-3-yl]-6-methylthieno[2,3-b]pyridine-2-carboxamide] | 1 to 50 nM | 
CO[C@@]12CCN[C@H]1CN(c1ccc3c(n1)CC[C@H](NC(=O)c1sc4nc(C)ccc4c1N)C3)C2 [Example 434, N-[(6S)-2-[(3aR,6aS)-3a-methoxy-octahydropyrrolo[2,3-c]pyrrol-5-yl]-5,6,7,8-tetrahydroquinolin-6-yl]-3-amino-6-methylthieno[2,3-b]pyridine-2-carboxamide] | 50 to 200 nM | 
CO[C@]12CCN[C@@H]1CN(c1ccc3c(n1)CC[C@H](NC(=O)c1sc4nc(C)ccc4c1N)C3)C2 [Example 435, N-[(6S)-2-[(3aS,6aR)-3a-methoxy-octahydropyrrolo[2,3-c]pyrrol-5-yl]-5,6,7,8-tetrahydroquinolin-6-yl]-3-amino-6-methylthieno[2,3-b]pyridine-2-carboxamide] | 50 to 200 nM | 
Cc1ccc2c(N)c(C(=O)N[C@H]3CCc4cc(N5C[C@@H](CF)[C@@H](N)C5)ccc4C3)sc2n1 [Example 436, 3-amino-N-[(2S)-6-[(3R,4R)-3-amino-4-(fluoromethyl)pyrrolidin-1-yl]-1,2,3,4-tetrahydronaphthalen-2-yl]-6-methylthieno[2,3-b]pyridine-2-carboxamide] | 1 to 50 nM | 
